According to ChEMBL document CHEMBL1129213, “Synthesis and structure-activity relationships of potent conformationally restricted retinoid X receptor ligands” (Bioorg Med Chem Lett, 1997):

Columns and labels:
[1] = target: T1, Retinoic acid receptor RXR-gamma (Homo sapiens, UniProt P48443); assay: Inhibition of [3H]9-cis-RA binding to RXR gamma receptor
T1 sequence (P48443 whole entry): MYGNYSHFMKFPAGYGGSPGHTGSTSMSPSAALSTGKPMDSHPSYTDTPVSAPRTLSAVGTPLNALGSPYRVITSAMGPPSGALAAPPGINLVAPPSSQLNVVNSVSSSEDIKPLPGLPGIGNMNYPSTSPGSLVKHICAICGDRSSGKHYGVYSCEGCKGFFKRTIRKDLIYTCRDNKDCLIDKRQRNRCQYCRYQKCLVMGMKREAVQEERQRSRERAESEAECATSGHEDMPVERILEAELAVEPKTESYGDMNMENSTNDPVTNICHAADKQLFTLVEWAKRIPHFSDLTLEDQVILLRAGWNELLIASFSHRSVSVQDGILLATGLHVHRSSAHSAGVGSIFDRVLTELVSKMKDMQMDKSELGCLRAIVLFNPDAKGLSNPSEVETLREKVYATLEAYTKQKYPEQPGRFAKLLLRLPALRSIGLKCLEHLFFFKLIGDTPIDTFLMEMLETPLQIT

[2] = target: T2, Retinoic acid receptor RXR-beta (Homo sapiens, UniProt P28702); assay: Inhibition of [3H]9-cis-RA binding to RXR beta receptor
T2 sequence (P28702 whole entry): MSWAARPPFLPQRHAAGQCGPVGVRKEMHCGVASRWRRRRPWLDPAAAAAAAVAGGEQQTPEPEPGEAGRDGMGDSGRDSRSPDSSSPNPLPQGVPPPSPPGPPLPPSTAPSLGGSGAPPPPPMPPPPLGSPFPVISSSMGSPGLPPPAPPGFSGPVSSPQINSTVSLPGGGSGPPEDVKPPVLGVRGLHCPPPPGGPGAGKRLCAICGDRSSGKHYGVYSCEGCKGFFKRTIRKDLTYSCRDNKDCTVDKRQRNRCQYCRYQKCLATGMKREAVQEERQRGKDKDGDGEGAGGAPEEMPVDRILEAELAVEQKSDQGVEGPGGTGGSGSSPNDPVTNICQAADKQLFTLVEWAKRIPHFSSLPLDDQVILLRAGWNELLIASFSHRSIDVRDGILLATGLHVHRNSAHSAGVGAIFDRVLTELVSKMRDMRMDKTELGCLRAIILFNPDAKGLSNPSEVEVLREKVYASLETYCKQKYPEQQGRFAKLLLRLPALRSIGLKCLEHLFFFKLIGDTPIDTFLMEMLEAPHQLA

[3] = target: T3, Retinoic acid receptor RXR-alpha (Homo sapiens, UniProt P19793); assay: Inhibition of [3H]9-cis-RA binding to RXR alpha receptor
T3 sequence (P19793 whole entry): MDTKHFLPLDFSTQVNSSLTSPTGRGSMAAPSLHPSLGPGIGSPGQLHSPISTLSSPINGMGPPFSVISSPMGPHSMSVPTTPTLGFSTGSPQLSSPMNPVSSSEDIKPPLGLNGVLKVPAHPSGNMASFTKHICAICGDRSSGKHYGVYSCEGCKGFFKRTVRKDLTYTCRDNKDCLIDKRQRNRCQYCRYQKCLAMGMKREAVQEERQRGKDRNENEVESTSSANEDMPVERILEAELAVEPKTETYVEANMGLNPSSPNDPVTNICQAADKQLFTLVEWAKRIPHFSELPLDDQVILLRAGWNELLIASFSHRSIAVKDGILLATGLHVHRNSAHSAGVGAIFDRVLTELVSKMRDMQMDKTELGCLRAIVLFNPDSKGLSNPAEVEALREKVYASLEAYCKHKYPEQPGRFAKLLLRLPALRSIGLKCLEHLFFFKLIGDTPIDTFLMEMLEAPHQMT

[4] = target: T1, Retinoic acid receptor RXR-gamma; assay: Transcriptional activation in CV-1 cells expressing retinoid X receptor RXR gamma; type: functional, cell-based
[5] = target: T4, Retinoic acid receptor gamma (Homo sapiens, UniProt P13631); assay: Inhibition of [3H]ATRA binding to RAR gamma receptor
T4 sequence (P13631 whole entry): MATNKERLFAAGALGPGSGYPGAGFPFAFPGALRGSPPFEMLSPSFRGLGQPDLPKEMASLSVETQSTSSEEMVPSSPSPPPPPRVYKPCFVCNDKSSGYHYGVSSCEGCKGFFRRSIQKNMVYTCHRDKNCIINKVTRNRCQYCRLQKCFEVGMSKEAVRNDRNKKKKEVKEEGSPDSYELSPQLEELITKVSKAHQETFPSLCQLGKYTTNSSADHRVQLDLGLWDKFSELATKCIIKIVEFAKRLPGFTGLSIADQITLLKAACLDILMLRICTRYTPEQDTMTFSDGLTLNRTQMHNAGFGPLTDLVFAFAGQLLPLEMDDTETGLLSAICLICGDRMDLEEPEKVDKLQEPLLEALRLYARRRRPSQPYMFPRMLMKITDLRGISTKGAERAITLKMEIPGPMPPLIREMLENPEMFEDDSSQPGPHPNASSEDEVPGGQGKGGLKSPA

[6] = target: T5, Retinoic acid receptor beta (Homo sapiens, UniProt P10826); assay: Inhibition of [3H]ATRA binding to RAR beta receptor
T5 sequence (P10826 whole entry): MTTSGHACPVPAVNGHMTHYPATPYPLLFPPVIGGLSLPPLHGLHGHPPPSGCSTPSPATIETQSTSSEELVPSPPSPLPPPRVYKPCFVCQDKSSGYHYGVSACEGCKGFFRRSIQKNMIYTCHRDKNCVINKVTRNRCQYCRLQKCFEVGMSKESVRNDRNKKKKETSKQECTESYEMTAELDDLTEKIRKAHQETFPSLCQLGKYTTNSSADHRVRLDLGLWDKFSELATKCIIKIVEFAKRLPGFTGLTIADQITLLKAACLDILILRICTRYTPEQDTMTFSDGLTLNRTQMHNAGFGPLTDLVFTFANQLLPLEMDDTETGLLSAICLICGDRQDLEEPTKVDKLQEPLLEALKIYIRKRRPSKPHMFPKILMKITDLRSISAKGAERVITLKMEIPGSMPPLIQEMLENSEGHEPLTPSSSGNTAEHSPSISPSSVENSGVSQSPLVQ

[7] = target: T6, Retinoic acid receptor alpha (Homo sapiens, UniProt P10276); assay: Transcriptional activation in CV-1 cells expressing retinoic acid receptor RAR alpha; not active; type: functional, cell-based
T6 sequence (P10276 whole entry): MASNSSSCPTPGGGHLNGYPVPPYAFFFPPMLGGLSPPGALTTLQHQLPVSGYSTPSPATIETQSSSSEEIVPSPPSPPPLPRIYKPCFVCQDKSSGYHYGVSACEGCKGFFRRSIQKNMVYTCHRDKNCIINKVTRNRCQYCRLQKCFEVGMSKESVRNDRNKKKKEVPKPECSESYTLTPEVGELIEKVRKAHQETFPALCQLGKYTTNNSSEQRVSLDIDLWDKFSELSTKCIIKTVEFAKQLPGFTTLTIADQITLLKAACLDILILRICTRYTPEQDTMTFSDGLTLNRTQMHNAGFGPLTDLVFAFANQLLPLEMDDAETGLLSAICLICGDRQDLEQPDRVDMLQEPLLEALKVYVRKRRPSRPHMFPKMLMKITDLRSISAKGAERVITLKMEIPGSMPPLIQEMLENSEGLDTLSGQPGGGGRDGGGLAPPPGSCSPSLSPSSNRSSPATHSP

[8] = target: T6, Retinoic acid receptor alpha; assay: Inhibition of [3H]ATRA binding to RAR alpha receptor
[9] = target: T2, Retinoic acid receptor RXR-beta; assay: Transcriptional activation in CV-1 cells expressing retinoid X receptor RXR beta; type: functional, cell-based
[10] = target: T3, Retinoic acid receptor RXR-alpha; assay: Transcriptional activation in CV-1 cells expressing retinoid X receptor RXR alpha; type: functional, cell-based
[11] = target: T4, Retinoic acid receptor gamma; assay: Transcriptional activation in CV-1 cells expressing retinoic acid receptor RAR gamma; type: functional, cell-based
[12] = target: T5, Retinoic acid receptor beta; assay: Transcriptional activation in CV-1 cells expressing retinoic acid receptor RAR beta; type: functional, cell-based
[13] = target: T5, Retinoic acid receptor beta; conditions: cv-1
[14] = target: T6, Retinoic acid receptor alpha; assay: Transcriptional activation in CV-1 cells expressing retinoic acid receptor RAR alpha; inactive; type: functional, cell-based
[15] = target: T4, Retinoic acid receptor gamma; conditions: cv-1

Ki [1] [nM] | Ki [2] [nM] | Ki [3] [nM] | EC50 [4] [nM] | Ki [5] [nM] | Ki [6] [nM] | EC50 [7] | Ki [8] [nM] | EC50 [9] [nM] | EC50 [10] [nM] | EC50 [11] [nM] | EC50 [12] [nM] | EC50 [13] | EC50 [14] | EC50 [15] | SMILES
290 | 199 | 150 | 404 | 887 | 909 | Not Active | 944 | 486 | – | – | – | – | – | – | C=C(c1ccc(C(=O)O)cc1)c1ccc2c(c1)C(C)(C)CCC2(C)C
> 1000 | > 1000 | > 1000 | 2710 | > 1000 | > 1000 | Not Active | > 1000 | 2000 | 2520 | 1780 | 809 | – | – | – | CC(/C=C/C1(c2cc3c(cc2C)C(C)(C)CCC3(C)C)CCCC1)=C\C(=O)O
5 | 4 | 4 | 7 | > 1000 | > 1000 | – | > 1000 | 13 | – | – | – | Not Active | Not Active | – | CC(/C=C/C1(c2cc3c(cc2C)C(C)(C)CCC3(C)C)CC1)=C\C(=O)O
172 | 124 | 92 | 192 | > 1000 | > 1000 | Not Active | > 1000 | 127 | 51 | – | – | Not Active | – | Not Active | CC(/C=C/C1(c2ccc3c(c2)C(C)(C)CCC3(C)C)CCCC1)=C\C(=O)O
6 | 7 | 3 | 24 | > 1000 | > 1000 | Not Active | > 1000 | 19 | 23 | 399 | 287 | – | – | – | CC(/C=C/C1(c2ccc3c(c2)C(C)(C)CCC3(C)C)CC1)=C\C(=O)O
